Test results published in US20130184272A1, “DIABETES THERAPEUTIC AGENT” (TAKEDA PHARMACEUTICAL COMPANY LIMITED, priority 2010, published 2013).

Key:
[1] = test system: Mouse-derived myoblast line C2C12 cell; assay: Cell differentiation promoting activity in myoblast (creatine kinase activity); type: cell-based; conditions: Mus musculus, C2C12, 48 h; compound at 0.01 μM (**); 2 days; without compound = 100%; read-out: creatine kinase activating action (%)
Experimental: • (1) Mouse-derived myoblast line C2C12 cell (Dainippon Pharmaceutical Co., Ltd.) was subcultured in a high glucose Eagle's modified Dulbecco's medium (GIBCO) added with 10% calf fetal bovine serum (GIBCO), 100 unit/mL penicillin and 100 μg/mL streptomycin (hereinafter to be referred to as a growth medium), plated at 5000 cells/cm^2 and cultured at 37° C., under 5% CO2. • (2) When the cells reached subconfluence of not less than 90%, the medium was exchanged with high glucose Eagle's modified Dulbecco's medium (GIBCO) added with (i) 2% horse serum (GIBCO) and (ii) penicillin, streptomycin and a test compound (hereinafter to be referred to as a differentiation medium) and the cells were cultured for 2 days. To the control group was added DMSO solution instead of the test compound. • (3) The cells were washed with PBS, 0.5% NP-40 solution was added, and the cells were lysed by freeze-thawing. The cell extract was centrifuged and the creatine kinase activity in the supernatant was measured as an index of muscle differentiation. The creatine kinase activity was measured using CPKII Test Wako (Wako Pure Chemical Industries, Ltd.) according to the manual of the kit.
The numerical values in Table 1 show creatine kinase activity of the compound addition group when the creatine kinase activity without addition of the compound is 100%, and * means measurement with addition of the compound at 10 μM, ** at 0.01 μM, and others at 1 μM.

C2C12 cells = assay: ATP content in muscle cell; type: cell-based, Mouse; conditions: for ATP content: two days, control group 100
Experimental: • (1) In the same manner as in Example 1, C2C12 cells were cultured in a growth medium to not less than 90% confluence. • (2) The medium was exchanged with a differentiation medium, and the cells were cultured until observation of myotube formation under a microscope. • (3) The compounds of Reference Example 1 and Reference Example 7 were added, and the cells were cultured for two days. • (4) ATP content was measured using Cell Titer-Glo™ Luminescence cell viable assay (Promega) and succinic acid dehydrogenase activity of mitochondria was measured using Cell Counting Kit-8 (Dojin). The data of Table 17 show mean±standard deviation at n=3-4 (n is the number of samples).

[2] = test system: Male C57BL/6J mice on a high-fat diet; assay: Antiobesity, dyslipidemia and diabetes improving effect in mouse fed with high-fat diet; type: in vivo; set-up: plasma leptin (mg/dL): unit not given here; conditions: for epididymal fat mass / gastrocnemius muscle weight (g/100 g body weight) / hepatocyte weight / mesenteric fat mass: Day 38
Experimental: Male C57BL/6J mice (CLEA Japan, Inc.) were bred from 5-week-old on a high-fat diet (D12451, research diet) while allowing free ingestion of both feed and water to prepare obesity mice. The mice were bred for acclimation for 2 weeks from 21-week-old. The body weight and plasma markers were measured when 23-week-old, the mice were divided into 6 groups (6 per group) such that the values thereof were uniform, and Reference Example 1 (0.01-0.1 mg/kg) or Reference Example 7 (1-3 mg/kg) was orally administered for 5 weeks. After 14 and 28 days, plasma levels of total cholesterol, neutral lipid, glucose, insulin, leptin, adiponectin and glycated hemoglobin were measured. On the last day, the mice were autopsied, and weights of mesenteric fat, epididymal fat, liver and gastrocnemius muscle were measured. The data of Table 18 show mean±standard deviation at n=5-6 (n is the number of samples).

## Cn1ncc2c1-c1c(Oc3cccnc3)sc(C(N)=O)c1CC2 [Ref. Ex. 7, 1-methyl-8-(pyridin-3-yloxy)-4,5-dihydro-1H-thieno[3,4-g]indazole-6-carboxamide]
[1]
  activity at 0.01 µM: 183%
C2C12 cells
  ATP content of muscle cells (in words): did not decrease
C2C12 cells; compound 1 nM
  ATP content: 106 ± 2
C2C12 cells; compound 10 nM
  ATP content: 111 ± 3
C2C12 cells; compound 100 nM
  ATP content: 103 ± 4
[2]; 1 mg/kg oral
  average amount of ingestion: 3.6 ± 0.2 g/day
  body weight (g) change: 4.0 ± 1.5 g
  epididymal fat mass: 0.78 ± 0.11 g
  gastrocnemius muscle weight (g/100 g body weight): 0.360 ± 0.014 g/100 g body weight
  hepatocyte weight: 1.85 ± 0.30 g
  mesenteric fat mass: 0.95 ± 0.14 g
[2]; 1 mg/kg oral, Day 0
  body weight: 41.2 ± 1.8 g
  glycated hemoglobin (%): 4.4 ± 0.1%
  plasma adiponectin (μg/dL)): 18.3 ± 2.8 µg/dL
  plasma glucose: 168.4 ± 29.1 mg/dL
  plasma insulin: 5.3 ± 3.5 ng/mL
  plasma leptin (mg/dL): 61.4 ± 18.1
  plasma neutral fats: 69.8 ± 35.0 mg/dL
  plasma total cholesterol: 227.2 ± 21.2 mg/dL
[2]; 1 mg/kg oral, Day 14
  glycated hemoglobin (%): 4.2 ± 0.2%
  plasma adiponectin (μg/dL)): 14.9 ± 3.4 µg/dL
  plasma glucose: 157.5 ± 19.4 mg/dL
  plasma insulin: 7.8 ± 3.3 ng/mL
  plasma leptin (mg/dL): 86.9 ± 12.0
  plasma neutral fats: 68.8 ± 16.0 mg/dL
  plasma total cholesterol: 213.8 ± 13.0 mg/dL
[2]; 1 mg/kg oral, Day 28
  glycated hemoglobin (%): 4.0 ± 0.1%
  plasma adiponectin (μg/dL)): 12.2 ± 2.3 µg/dL
  plasma glucose: 149.7 ± 16.9 mg/dL
  plasma insulin: 12.3 ± 4.9 ng/mL
  plasma leptin (mg/dL): 96.1 ± 10.2
  plasma neutral fats: 62.1 ± 26.1 mg/dL
  plasma total cholesterol: 216.8 ± 20.7 mg/dL
[2]; 1 mg/kg oral, Day 37
  body weight: 45.6 ± 3.0 g
[2]; 3 mg/kg oral
  average amount of ingestion: 3.7 ± 0.2 g/day
  body weight (g) change: 2.3 ± 2.3 g
  epididymal fat mass: 0.77 ± 0.15 g
  gastrocnemius muscle weight (g/100 g body weight): 0.375 ± 0.020 g/100 g body weight
  hepatocyte weight: 1.74 ± 0.30 g
  mesenteric fat mass: 0.77 ± 0.24 g
[2]; 3 mg/kg oral, Day 0
  body weight: 41.1 ± 1.7 g
  glycated hemoglobin (%): 4.6 ± 0.1%
  plasma adiponectin (μg/dL)): 17.0 ± 2.9 µg/dL
  plasma glucose: 176.9 ± 30.1 mg/dL
  plasma insulin: 5.1 ± 2.3 ng/mL
  plasma leptin (mg/dL): 62.3 ± 10.9
  plasma neutral fats: 71.6 ± 28.8 mg/dL
  plasma total cholesterol: 231.9 ± 29.9 mg/dL
[2]; 3 mg/kg oral, Day 14
  glycated hemoglobin (%): 4.0 ± 0.3%
  plasma adiponectin (μg/dL)): 15.2 ± 3.0 µg/dL
  plasma glucose: 172.8 ± 32.3 mg/dL
  plasma insulin: 6.2 ± 3.0 ng/mL
  plasma leptin (mg/dL): 73.5 ± 12.6
  plasma neutral fats: 47.0 ± 9.2 mg/dL
  plasma total cholesterol: 192.8 ± 12.5 mg/dL
[2]; 3 mg/kg oral, Day 28
  glycated hemoglobin (%): 4.0 ± 0.2%
  plasma adiponectin (μg/dL)): 12.8 ± 0.8 µg/dL
  plasma glucose: 155.9 ± 12.7 mg/dL
  plasma insulin: 5.8 ± 1.4 ng/mL
  plasma leptin (mg/dL): 77.3 ± 16.3
  plasma neutral fats: 53.6 ± 35.6 mg/dL
  plasma total cholesterol: 194.1 ± 18.4 mg/dL
[2]; 3 mg/kg oral, Day 37
  body weight: 44.0 ± 2.4 g
[2]; obese mouse model fed with a high-fat diet
  body weight (in words): clear body weight decreasing action
